Data as given in PubChem BioAssay AID2060336 (Molecular Pharmacology Branch, DTP, NCI, 2025).

Tested on: 958767-090-R-J1-PDC spheroid growth
Test: Anticancer human tumor 958767-090-R-J1-PDC patient-derived head and neck squamous carcinoma cell line growth inhibition [IpAb]
Conditions: spheroids with HUVEC and MSC; for IC50: curve of first compound; for viability, T/C: stronger effect = lower value
Summary of the method: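 Combinations with ipatasertib or abemaciclib were tested on tumour spheroids holding HUVEC (25%) and MSC (15%) alongside 60% malignant cells. Top concentration was at or near clinical Cmax (10 microM if undefined), descending in half-log steps.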
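Also: spheroids exposed to agents for 7 days.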
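For viability, T/C in this document: 100% = DMSO vehicle control wells.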

CC(=O)c1c(C)c2cnc(Nc3ccc(N4CCNCC4)cn3)nc2n(C2CCCC2)c1=O + CCN1CCN(Cc2ccc(Nc3ncc(F)c(-c4cc(F)c5nc(C)n(C(C)C)c5c4)n3)nc2)CC1
IC50 (second compound 0.01 µM): > 300 nM
IC50 (second compound 0.0316 µM): > 300 nM
IC50 (second compound 0.1 µM): 137 nM
IC50 (second compound 0.316 µM): 265 nM
IC50 (second compound 1 µM): > 300 nM
viability, T/C (second compound 0.01 µM, first compound 0.000949 µM): 80.7%
viability, T/C (second compound 0.01 µM, first compound 0.003 µM): 72.5%
viability, T/C (second compound 0.01 µM, first compound 0.00949 µM): 66.5%
viability, T/C (second compound 0.01 µM, first compound 0.03 µM): 64.3%
viability, T/C (second compound 0.01 µM, first compound 0.0949 µM): 59.6%
viability, T/C (second compound 0.01 µM, first compound 0.3 µM): 53.4%
viability, T/C (second compound 0.0316 µM, first compound 0.000949 µM): 73.8%
viability, T/C (second compound 0.0316 µM, first compound 0.003 µM): 75.5%
viability, T/C (second compound 0.0316 µM, first compound 0.00949 µM): 54.2%
viability, T/C (second compound 0.0316 µM, first compound 0.03 µM): 53.8%
viability, T/C (second compound 0.0316 µM, first compound 0.0949 µM): 56.5%
viability, T/C (second compound 0.0316 µM, first compound 0.3 µM): 49.7%
viability, T/C (second compound 0.1 µM, first compound 0.000949 µM): 61.5%
viability, T/C (second compound 0.1 µM, first compound 0.003 µM): 56.2%
viability, T/C (second compound 0.1 µM, first compound 0.00949 µM): 65.7%
viability, T/C (second compound 0.1 µM, first compound 0.03 µM): 53.6%
viability, T/C (second compound 0.1 µM, first compound 0.0949 µM): 44.4%
viability, T/C (second compound 0.1 µM, first compound 0.3 µM): 50.9%
viability, T/C (second compound 0.316 µM, first compound 0.000949 µM): 54.2%
viability, T/C (second compound 0.316 µM, first compound 0.003 µM): 50.7%
viability, T/C (second compound 0.316 µM, first compound 0.00949 µM): 57.2%
viability, T/C (second compound 0.316 µM, first compound 0.03 µM): 52.9%
viability, T/C (second compound 0.316 µM, first compound 0.0949 µM): 51.1%
viability, T/C (second compound 0.316 µM, first compound 0.3 µM): 47.9%
viability, T/C (second compound 1 µM, first compound 0.000949 µM): 65.2%
viability, T/C (second compound 1 µM, first compound 0.003 µM): 63.8%
viability, T/C (second compound 1 µM, first compound 0.00949 µM): 60.6%
viability, T/C (second compound 1 µM, first compound 0.03 µM): 65.2%
viability, T/C (second compound 1 µM, first compound 0.0949 µM): 62.2%
viability, T/C (second compound 1 µM, first compound 0.3 µM): 53.1%
